Like-named read-outs stand apart in the source and are kept apart here.
How the values were obtained:
Assay type in all cases: cell-based
[1] = test system: HCT116 cells; test: ATPlite cell viability after drug treatment, HCT116 cells in cell-line or organoid culture media; design: AUC 1st / AUC 2nd / AUC 3rd / AUC Average: unit not given here
Description: (§1) Advanced DMEM/F12+++ (hereinafter referred to as “Ad/DF+++”) was used to produce colorectal cancer organoids. Ad/DF+++ was refrigerated at 4° C. until use, and was used in a cold state during cell washing. Ad/DF+++ medium containing the reagents shown in Table 1 below along with Ad/DF 1× (Gibco) was prepared.
(§2) After preparing the Ad/DF+++ medium containing the above reagents, an appropriate amount of Matrigel (Corning #356231) was added so that the ratio between Matrigel and cells suspended in the Ad/DF+++ medium was 7:3. Then, the cells were plated on low attachment well plates at an appropriate density. The density and the type and number of well plates were determined according to the characteristics of each cell type. The medium was prepared according to the composition shown in Table 2 below, and the cells were cultured (expanded) until the required level was reached while the medium was replaced every 3 to 4 days.
If the organoids were expanded as needed for the experiment, the medium was carefully removed, taking care not to touch the Matrigel. The cells were separated from the Matrigel by pipetting about 20 times with 1 ml of cold Ad/DF+++. The cells in 1 to 4 wells per 6-well plate were collected in one 50 ml tube. If cells are collected from more than 4 wells into one tube, the Metrigel may not be washed properly. For this reason, the cells were placed in several tubes. Thereafter, Ad/DF+++ was poured to 20 to 50 ml of each tube, followed by centrifugation at 400 g for 3 minutes at 4° C. The cells were dissociated with 1 to 2 mL of TrypLE™ Express Enzyme (Gibco, 1264-013), transferred to low-attachment 24 well plates, and then treated with 10 μM of Y-27632. Next, the cells were cultured in a CO2 incubator for 5 minutes at 37° C. After pipetting about 20 times, whether the cells would be dissociated into single cells was checked by microscopic observation. If the cells were not dissociated into single cells, the culture under CO2 and pipetting processes were repeated. After the single cells were transferred into 15-ml tubes, Ad/DF+++ was filled to 10 to 15 ml of each tube, followed by centrifugation at 400 g at 4° C. for 3 minutes. After suspending the pellet in Ad/DF+++, the cells were counted and diluted with medium according to the required number of cells.
12 hours after seeding in Experimental Example 1-2 above, the medium was changed with the medium shown in Table 3 below, followed by culturing to produce organoids.
(§3) Four hours after the medium change, the cells were treated with oxaliplatin, 5-FU, Irinotecan, and folinic acid. Five days after drug treatment, intracellular ATP expression was determined using the ATPlite assay kit (PerkinElmer), and the data were expressed in terms of cell viability, IC50, and AUC.
As the standard for confirming that cells are sensitive to the drug, the response of the cells to the drug was assumed to be 100%, and the luminescence value of surviving cells after drug treatment was analyzed and compared with the quantified drug response value.
Based on the assumption that the factor that increases the resistance of the organoids to oxaliplatin is an activator or inhibitor that changes the phenotype, the organoids prepared by excluding some or all of activators and inhibitors as shown in Table 4 below were treated with oxaliplatin.
In order to identify the factors that reduce the resistance to oxaliplatin of the Ex2 organoid, activators or inhibitors that change the phenotype were added one by one to the Ex2 organoid composition, thus producing organoids as shown in Table 8 below. Then, it was checked whether the produced organoids had increased resistance to oxaliplatin.

[2] = test system: HCT15 cells; test: ATPlite cell viability after oxaliplatin, HCT15 cells in organoid culture media
Description: as §1
as §2, with “The medium was prepared according to the composition shown in Table 2 below, and the cells were cultured (expanded) until the required level was reached while the medium was replaced every 3 to 4 days.” left out
(§4) If the organoids were expanded as needed for the experiment, the medium was carefully removed, taking care not to touch the Matrigel. […] After suspending the pellet in Ad/DF+++, the cells were counted and diluted with medium according to the required number of cells. […]
as §3, with “AUC. […]” for “AUC.”

[3] = test system: CoLo205 cells; test: ATPlite cell viability after oxaliplatin, CoLo205 cells in organoid culture media; settings: FIG. 19
Description: as §1
as §2, with “The medium was prepared according to the composition shown in Table 2 below, and the cells were cultured (expanded) until the required level was reached while the medium was replaced every 3 to 4 days.” left out
as §4
as §3, with “AUC. […]” for “AUC.”

[4] = test system: 166T colorectal cancer patient-derived organoids; test: Cell viability after oxaliplatin, 2D and 3D culture of patient-derived organoids; settings: for cell viability, Ex1 medium compared with control (CRC): FIGS. 26 and 27
Description: as §3
In order to evaluate the difference between 2D culture and 3D culture performed using the above medium compositions, 166T CoLvM patient-derived organoids were cultured under 2D culture conditions and 3D culture conditions.

## O=C1[O][Pt]2([NH][C@@H]3CCCC[C@H]3[NH]2)[O]C1=O [oxaliplatin]
[1]; HCT116 in Ex2-3, 3rd
  AUC 3rd: 287.0
[1]; HCT116 in Ex2-3, 3rd, read-out: IC50 (μM) 3rd
  IC50: 18.2 µM
[1]; HCT116 in Ex2-3, average
  AUC Average: 312.3
[1]; HCT116 in Ex2-3, average, read-out: IC50 (μM) Average
  IC50: 37.3 µM
[1]; HCT116 in Ex2-4 (Ex2 + Wnt3a), 1st
  AUC 1st: 258.2
[1]; HCT116 in Ex2-4 (Ex2 + Wnt3a), 1st, read-out: IC50 (μM) 1st
  IC50: 5.9 µM
[1]; HCT116 in Ex2-4, 2nd
  AUC 2nd: 304.7
[1]; HCT116 in Ex2-4, 2nd, read-out: IC50 (μM) 2nd
  IC50: 38.8 µM
[1]; HCT116 in Ex2-4, 3rd
  AUC 3rd: 315.9
[1]; HCT116 in Ex2-4, 3rd, read-out: IC50 (μM) 3rd
  IC50: 26.9 µM
[1]; HCT116 in Ex2-4, average
  AUC Average: 292.9
[1]; HCT116 in Ex2-4, average, read-out: IC50 (μM) Average
  IC50: 23.8 µM
[1]; HCT116 in Ex2-5 (Ex2 + R-spondin 1 1 μg/ml), 1st
  AUC 1st: 317.5
[1]; HCT116 in Ex2-5 (Ex2 + R-spondin 1 1 μg/ml), 1st, read-out: IC50 (μM) 1st
  IC50: 34 µM
[1]; HCT116 in Ex2-5, 2nd
  AUC 2nd: 322.7
[1]; HCT116 in Ex2-5, 2nd, read-out: IC50 (μM) 2nd
  IC50: 43 µM
[1]; HCT116 in Ex2-5, 3rd
  AUC 3rd: 351.6
[1]; HCT116 in Ex2-5, 3rd, read-out: IC50 (μM) 3rd
  IC50: 103 µM
[1]; HCT116 in Ex2-5, average
  AUC Average: 330.6
[1]; HCT116 in Ex2-5, average, read-out: IC50 (μM) Average
  IC50: 60 µM
[1]; HCT116 in Ex2-6 (Ex2 + Noggin 100 ng/ml), 1st
  AUC 1st: 264.3
[1]; HCT116 in Ex2-6 (Ex2 + Noggin 100 ng/ml), 1st, read-out: IC50 (μM) 1st
  IC50: 7.8 µM
[1]; HCT116 in Ex2-6, 2nd
  AUC 2nd: 309.4
[1]; HCT116 in Ex2-6, 2nd, read-out: IC50 (μM) 2nd
  IC50: 41.4 µM
[1]; HCT116 in Ex2-6, 3rd
  AUC 3rd: 292.6
[1]; HCT116 in Ex2-6, 3rd, read-out: IC50 (μM) 3rd
  IC50: 22.1 µM
[1]; HCT116 in Ex2-6, average
  AUC Average: 288.8
[1]; HCT116 in Ex2-6, average, read-out: IC50 (μM) Average
  IC50: 23.8 µM
[1]; HCT116 in Ex2, 2nd
  AUC 2nd: 324.8
[1]; HCT116 in Ex2, 2nd, read-out: IC50 (μM) 2nd
  IC50: 46.1 µM
[1]; HCT116 in Ex2, 3rd
  AUC 3rd: 331.7
[1]; HCT116 in Ex2, 3rd, read-out: IC50 (μM) 3rd
  IC50: 40.5 µM
[1]; HCT116 in Ex2, average
  AUC Average: 325.4
[1]; HCT116 in Ex2, average, read-out: IC50 (μM) Average
  IC50: 38.1 µM
[1]; HCT-116, FIG. 2
  drug response, colorectal cancer cell line compared with cells under Ex1 organoid culture conditions: increased resistance under the organoid culture conditions
[1]; HCT-116, FIG. 25
  drug responsiveness, colorectal cancer cell line compared with organoids cultured in Ex1 and Ex2: oxaliplatin resistance decreased in Ex2
[2]; Ex2 and Ex4, log [oxaliplatin] value 2, FIG. 18
  cell viability: ≥ 50%
[2]; FIG. 17
  AUC value, Ex1 to Ex4 compared: decreased under the organoid culture conditions of Ex2
[3]
  AUC values of Ex2 to Ex4 compared with Ex1: higher than that of Ex1
[4]; 2D and 3D culture
  cell viability, Ex2 medium compared with control: cell viabilities similar to those of the control group
[4]; 2D culture
  cell viability, Ex1 medium compared with control (CRC): cell viability similar to that of the control (CRC) cell line
[4]; 3D culture
  cell viability, Ex1 medium compared with control (CRC): higher cell viability than that of the control (CRC) cell line
